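Results reflect a 48-hour exposure of cells in 96-well plates to compound at five concentrations. GI50 is the concentration that inhibits growth by half.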 Activity calls are given as the source filed them. Cut-off read from the data, not from the text of the source: active = GI50 up to about 1.1 µM and inactive = higher.

Ten compounds from ChEMBL document CHEMBL1201862, “PubChem BioAssay data set” (2004) can be followed below.

What all share (experiment): NCI anticancer screen, dose series, 48 h
Assay [1] deals with CAKI-1.
The subject of assay [2] is 786-0.
For assay [3], the system named is MCF7.
Assay [4] has as its system SNB-78.
The subject of assay [5] is LOX IMVI.
For assay [6], the system named is U-251.
Assay [7] has as its system SW-620.
Assay [8] deals with RPMI-8226.
The test system of assay [9] is OVCAR-8.
The subject of assay [10] is IGROV-1.
Assay [11] deals with SK-MEL-2.
Assay [12] has as its system SK-MEL-5.
Assay [13] relates to SK-MEL-28.
For assay [14], the system named is SK-OV-3.
Assay [15] relates to ACHN.
Assay [16] has as its system NCI-H460.
The subject of assay [17] is M14.
Assay [18] has as its system MDA-MB-435.
For assay [19], the system named is A498.
The test system of assay [20] is SF-539.

Regarding `CN(C)[C@@H]1C(O)=C(C(=O)NCNc2nc3[nH]nnc3c(=O)[nH]2)C(=O)[C@@]2(O)C(O)=C3C(=O)c4c(O)cccc4[C@@](C)(O)[C@H]3C[C@@H]12`, the GI50 in assay [1] is 0.557 µM (active); in [2], 0.637 µM (active); in assay [3] it was 66.1 µM (inactive); in assay [4] it was 1.81 µM (inactive); in [5], 0.679 µM (active); in assay [6] it was 2.15 µM (inactive). Also, the GI50 is 0.471 µM (active) in assay [7]; 0.272 µM (active) in [8]; 0.817 µM (active) in [9]; 15.9 µM (inactive) in assay [10]; 0.139 µM (active) in [11]; 1.9 µM (inactive) in assay [12]. Besides, the GI50 in assay [13] was 1.33 µM (inactive); in [14], 0.723 µM (active); in assay [15], 31.5 µM (inactive); in assay [16], 24.3 µM (inactive); in [17] it was 0.557 µM (active); in assay [18], 0.452 µM (active). Also, the GI50 was 92 µM (inactive) in assay [19] and 0.641 µM (active) in assay [20].

`CNS(=O)(=O)NNS(=O)(=O)c1ccc(Br)cc1`: the GI50 in assay [1] is > 100 µM (inactive); in assay [2], 63.1 µM (inactive); in [4], > 100 µM (inactive); in assay [5], > 100 µM (inactive); in assay [6], 28.3 µM (inactive); in [7], > 100 µM (inactive). In addition, the GI50 in [8], in [9], in assay [10], in [11], in assay [12] and in assay [13] was > 100 µM (inactive) each time. Moreover, the GI50 in assay [14] was > 100 µM (inactive); in assay [15] it was > 100 µM (inactive); in assay [16], 42.7 µM (inactive); in assay [17] it was > 100 µM (inactive); in assay [19] it was > 100 µM (inactive); in assay [20] it was > 100 µM (inactive).

Consider `COc1ccc(C2CC(=O)c3c(O)cc(O)cc3O2)cc1O` (configuration not stated), for which the GI50 in [1], in assay [2], in [4], in assay [5], in [6] and in assay [7] was > 100 µM (inactive) each time. Moreover, the GI50 in assay [8] is 78 µM (inactive); in assay [9], > 100 µM (inactive); in assay [10] it was > 100 µM (inactive); in [11], > 100 µM (inactive); in assay [12] it was > 100 µM (inactive); in assay [13] it was > 100 µM (inactive). Further, the GI50 in assay [14], in assay [15], in assay [16], in [17], in assay [19] and in assay [20] was > 100 µM (inactive) throughout.

In the case of `CC(=O)NC(Cc1ccccc1)C(=S)N1CCCC1` (configuration not stated), the GI50 in [1], in assay [2], in assay [4], in [5], in assay [6] and in assay [7] was > 100 µM (inactive) each time. For the same compound, the GI50 in [8], in assay [9], in [10], in assay [11], in assay [12] and in [13] was > 100 µM (inactive) in each case. In addition, the GI50 in [14], in assay [15], in assay [16], in assay [17], in assay [19] and in [20] was > 100 µM (inactive) in each case.

Take `CN(C)CCC(=O)N1C/C(=C/c2ccccc2)C(=O)/C(=C\c2ccccc2)C1`: the GI50 was 2.41 µM (inactive) in assay [1]; 1.49 µM (inactive) in [2]; 0.349 µM (active) in [3]; 3 µM (inactive) in [4]; 0.436 µM (active) in [5]; 0.662 µM (active) in assay [6]. For the same compound, the GI50 in assay [7] was 0.275 µM (active); in [8], 0.134 µM (active); in assay [9] it was 1.03 µM (active); in [10] it was 2.59 µM (inactive); in [11], 2.95 µM (inactive); in assay [12], 1.45 µM (inactive). The GI50 in assay [13] is 1.58 µM (inactive); in assay [14], 6.25 µM (inactive); in assay [15], 2.01 µM (inactive); in assay [16], 2.33 µM (inactive); in [17], 1.91 µM (inactive); in [18], 1.43 µM (inactive). Also, the figures for the GI50 in assay [19] and in assay [20] were 3.12 µM (inactive) and 3.91 µM (inactive), respectively.

For the compound `COC(=O)Cc1cc(O)c2c(c1O)C(=O)c1ccccc1C2=O`, the GI50 is > 100 µM (inactive) in [1]; 21.5 µM (inactive) in [2]; 37.6 µM (inactive) in assay [4]; 99.1 µM (inactive) in assay [5]; 27.9 µM (inactive) in assay [6]; > 100 µM (inactive) in assay [7]. Further, the GI50 was > 67.5 µM (inactive) in assay [8]; > 100 µM (inactive) in assay [9]; > 83.8 µM (inactive) in [10]; > 67.5 µM (inactive) in assay [11]; 68.2 µM (inactive) in assay [12]; > 100 µM (inactive) in assay [13]. For the same compound, the GI50 in assay [14] is 58.3 µM (inactive); in [15], > 57.1 µM (inactive); in assay [16] it was > 100 µM (inactive); in [17], > 100 µM (inactive); in assay [18], > 100 µM (inactive); in [19], 48.1 µM (inactive). In addition, the GI50 in assay [20] is 35.9 µM (inactive).

As for `Cc1c2ccncc2c(C)c2c1[nH]c1ccc(Cl)cc12`, the GI50 in assay [2] was 1.07 µM (active); in assay [3], 2.17 µM (inactive); in assay [4], 3.94 µM (inactive); in assay [5] it was 1.55 µM (inactive); in assay [6] it was 5.13 µM (inactive); in assay [7], 1.52 µM (inactive). In addition, the GI50 in assay [8] was 1.59 µM (inactive); in [9], 1.22 µM (inactive); in assay [10] it was 2.86 µM (inactive); in assay [11], 3.51 µM (inactive); in assay [12], 4.75 µM (inactive); in [13], 5.69 µM (inactive). The GI50 is 7.19 µM (inactive) in [14]; 1.26 µM (inactive) in assay [15]; 1.54 µM (inactive) in [16]; 4.57 µM (inactive) in assay [17]; 4.46 µM (inactive) in assay [19]; 2.44 µM (inactive) in assay [20].

In the case of `COc1cc2c(c(OC)c1OC)-c1ccc(OC)c(=O)cc1C(NC(=O)c1ccc(N=[N+]=[N-])cc1)CC2` (configuration not stated), the GI50 in assay [1] was 0.032 µM (active); in [2], 0.0446 µM (active); in assay [3], 0.0144 µM (active); in assay [4], 0.03 µM (active); in assay [5], 0.0423 µM (active); in assay [6], 0.0307 µM (active). Also, the GI50 in [7] was 0.0312 µM (active); in assay [8], 0.0359 µM (active); in [9] it was 0.0335 µM (active); in assay [10], 0.0466 µM (active); in assay [11], 0.0327 µM (active); in assay [12], 0.0264 µM (active). Also, the GI50 in assay [13] was 0.789 µM (active); in assay [14], 0.0292 µM (active); in assay [15] it was 0.0809 µM (active); in assay [16] it was 0.031 µM (active); in assay [17], 0.037 µM (active); in [18] it was 0.0134 µM (active). Besides, the GI50 was 0.0186 µM (active) in [19] and 0.0238 µM (active) in assay [20].

Regarding `COC(=O)C12C3C4C5C3(C#N)C1C5(C(=O)OC)C42C(=O)N(C(C)C)C(C)C` (configuration not stated), the GI50 in [1] is > 100 µM (inactive); in [2], > 100 µM (inactive); in assay [4] it was > 100 µM (inactive); in assay [5] it was 58.1 µM (inactive); in assay [6], > 78 µM (inactive); in [7], > 26.7 µM (inactive). Moreover, the GI50 is > 48.6 µM (inactive) in assay [8]; > 63 µM (inactive) in assay [9]; > 100 µM (inactive) in assay [10]; > 100 µM (inactive) in assay [11]; > 100 µM (inactive) in assay [12]; > 100 µM (inactive) in assay [13]. For the same compound, the GI50 in assay [14] is > 100 µM (inactive); in assay [15], > 100 µM (inactive); in assay [16], > 57.5 µM (inactive); in assay [17], > 100 µM (inactive); in [19] it was > 100 µM (inactive); in assay [20] it was > 100 µM (inactive).

Turning to `CC1CCSC(N(C(=O)N(C)c2ccccc2)c2ccccc2)=N1` (configuration not stated), the GI50 in [1], in assay [2], in assay [4], in assay [5], in assay [6] and in assay [7] was > 100 µM (inactive) each time. For the same compound, the GI50 in [8], in assay [9], in assay [10], in assay [11], in assay [12] and in [13] was > 100 µM (inactive) in each case. The GI50 in [14], in assay [15], in assay [16], in [17], in assay [19] and in [20] was > 100 µM (inactive) in each case.
